Experimental data: US9273043B2, “TRPV1 antagonists including dihydroxy substituent and uses thereof” (Purdue Pharma L.P., priority 2011, dated 2016)
Marks after values point to notes of the source that are not given here.

Tested on: MIA-induced osteoarthritis pain
Assay: MIA-induced osteoarthritis model, grip force test
Type: in vivo, rat
Settings: rat MIA, grip force
Text: Osteoarthritis Pain: To assess the actions of a Compound of Formula (I) for the treatment or prevention of osteoarthritis pain, the rat monosodium iodo-acetate (MIA, i.e., sodium 2-iodoacetate) induced osteoarthritis model was used. Intra-articular injection of MIA causes joint degeneration characterized by osteolysis and swelling, with displacement of the patella, and reductions in bone mineral content and bone mineral density (Pomonis et al., “Development and pharmacological characterization of a rat model of osteoarthritis pain,” Pain 114: 339-346 (2005)). Under isoflurane anaesthesia, an intra-articular injection of 2 mg of MIA (Sigma-Aldrich) in 50 μl of saline was administered through the infrapatellar ligament of the knee joint of the right hind leg of the male, 6 week old Crl:CD(SD) rats. Control rats received an intra-articular injection of 50 μl of saline into the knee joint of the right hind leg. The left knee joint of all rats was untreated. Two weeks after MIA injection, rats were assessed for osteoarthritis pain related-behaviors immediately prior to and 1, 3, 5, 7, and 24 hours after oral drug-in-vehicle administration (for day 1) by determining their weight-bearing capabilities, via the weight bearing difference (WBD) test, and their gripping capabilities, via the grip force test, each as described below. Thus, in the assessment for osteoarthritis pain relief through gripping capability determinations, the 24 hour time point was the start of the next day when drug-in-vehicle was again orally administered (24 hours after the prior administration) for certain dosages. On days 2, 3, and 4, gripping capability response was determined 3 and 24 hours thereafter.
The grip force (GF) of the hind legs was assessed using a Animal Grip Strength System (San Diego Instruments, San Diego, Calif.). Rats were gently restrained and allowed to grasp the wire mesh strain gauge with their hind legs. The animals were then moved in a rostral-caudal direction until they let go of the gauge. The force (in g) at which the rat let go was recorded. Each animal was tested twice at approximately 3-10 minute intervals at each time point and the average of the two readings was used for the GF in data analysis.
Grip force, normalized to account for the weight of each animal, was expressed as “GF/B”, i.e., the ratio of GF to body weight, where GF is the grip force in grams and B is the body weight of the animal in kg. The “% GFR”, i.e., the percentage reversal of the (normalized) grip force impediment occurring post-MIA injection, was determined for each dosage at each time point using the following formula:
[formula] where (GF/B)Drug is the GF/B determined at each post-oral-administration time-point for each dose of each substance administered to MIA-injected animals, (GF/B)Vehicle is the GF/B determined at each post-oral-administration time-point for the vehicle control administered to MIA-injected animals, and (GF/B)Control Rat is the GF/B determined for control rats (saline-injected animals receiving orally-administered vehicle only). With the exception of the controls (i.e., celecoxib, vehicle) where the student's t-test was used, Dunnett's test was conducted for the % GFR. In either instance, values with p <0.05 were considered to be statistically significant.

Compound: CC1CN(c2ncc(C(O)CO)cc2F)CCN1C(=O)Nc1nc2cc(F)ccc2s1.O=C(O)C=CC(=O)O (stereo not drawn)
- % GFR [mean] (oral 0.3 mg/kg, 1 h (day 1)): 12.8%
- % GFR [mean] (oral 0.3 mg/kg, 3 h (day 1)): 21.1* %
- % GFR [mean] (oral 0.3 mg/kg, 3 h (day 1), listed as product prepared with Compound A155(a) and fumaric acid): 21.1%
- % GFR [mean] (oral 0.3 mg/kg, 5 h (day 1)): 17.3* %
- % GFR [mean] (oral 0.3 mg/kg, 7 h (day 1)): 3.7%
- % GFR [mean] (oral 0.3 mg/kg, 24 h after day 1 dose (0 hrs day 2)): 4.0%
- % GFR [mean] (oral 1 mg/kg once daily, 3 h (day 2)): 43.1** %
- % GFR [mean] (oral 1 mg/kg once daily, 3 h (day 2), listed as product prepared with Compound A155(a) and fumaric acid): 43.1%
- % GFR [mean] (oral 1 mg/kg once daily, 3 h (day 3)): 38.0** %
- % GFR [mean] (oral 1 mg/kg once daily, 3 h (day 3), listed as product prepared with Compound A155(a) and fumaric acid): 38.0%
- % GFR [mean] (oral 1 mg/kg once daily, 3 h (day 4)): 40.1** %
- % GFR [mean] (oral 1 mg/kg once daily, 3 h (day 4), listed as product prepared with Compound A155(a) and fumaric acid): 40.1%
- % GFR [mean] (oral 1 mg/kg once daily, 24 h after day 2 dose (0 hrs day 3)): 15.4** %
- % GFR [mean] (oral 1 mg/kg once daily, 24 h after day 3 dose (0 hrs day 4)): 26.1** %
- % GFR [mean] (oral 1 mg/kg once daily, 24 h after day 4 dose (0 hrs day 5)): 26.4** %
- % GFR [mean] (oral 1 mg/kg, 1 h (day 1)): 29.7** %
- % GFR [mean] (oral 1 mg/kg, 3 h (day 1)): 45.2** %
- % GFR [mean] (oral 1 mg/kg, 3 h (day 1), listed as product prepared with Compound A155(a) and fumaric acid): 45.2%
- % GFR [mean] (oral 1 mg/kg, 5 h (day 1)): 37.6** %
- % GFR [mean] (oral 1 mg/kg, 7 h (day 1)): 16.5* %
- % GFR [mean] (oral 1 mg/kg, 24 h after day 1 dose (0 hrs day 2)): 3.1%
- % GFR [mean] (oral 3 mg/kg once daily, 3 h (day 2)): 50.5** %
- % GFR [mean] (oral 3 mg/kg once daily, 3 h (day 2), listed as product prepared with Compound A155(a) and fumaric acid): 50.5%
- % GFR [mean] (oral 3 mg/kg once daily, 3 h (day 3)): 45.0** %
- % GFR [mean] (oral 3 mg/kg once daily, 3 h (day 3), listed as product prepared with Compound A155(a) and fumaric acid): 45.0%
- % GFR [mean] (oral 3 mg/kg once daily, 3 h (day 4)): 45.6** %
- % GFR [mean] (oral 3 mg/kg once daily, 3 h (day 4), listed as product prepared with Compound A155(a) and fumaric acid): 45.6%
- % GFR [mean] (oral 3 mg/kg once daily, 24 h after day 2 dose (0 hrs day 3)): 22.0** %
- % GFR [mean] (oral 3 mg/kg once daily, 24 h after day 3 dose (0 hrs day 4)): 32.0** %
- % GFR [mean] (oral 3 mg/kg once daily, 24 h after day 4 dose (0 hrs day 5)): 28.9** %
- % GFR [mean] (oral 3 mg/kg, 1 h (day 1)): 36.5** %
- % GFR [mean] (oral 3 mg/kg, 3 h (day 1)): 53.6** %
- % GFR [mean] (oral 3 mg/kg, 3 h (day 1), listed as product prepared with Compound A155(a) and fumaric acid): 53.6%
- % GFR [mean] (oral 3 mg/kg, 5 h (day 1)): 44.3** %
- % GFR [mean] (oral 3 mg/kg, 7 h (day 1)): 19.9** %
- % GFR [mean] (oral 3 mg/kg, 24 h after day 1 dose (0 hrs day 2)): −2.2%
- % GFR [mean] (oral 10 mg/kg once daily, 3 h (day 2)): 57.5** %
- % GFR [mean] (oral 10 mg/kg once daily, 3 h (day 2), listed as product prepared with Compound A155(a) and fumaric acid): 57.5%
- % GFR [mean] (oral 10 mg/kg once daily, 3 h (day 3)): 51.6** %
- % GFR [mean] (oral 10 mg/kg once daily, 3 h (day 3), listed as product prepared with Compound A155(a) and fumaric acid): 51.6%
- % GFR [mean] (oral 10 mg/kg once daily, 3 h (day 4)): 52.2** %
- % GFR [mean] (oral 10 mg/kg once daily, 3 h (day 4), listed as product prepared with Compound A155(a) and fumaric acid): 52.2%
- % GFR [mean] (oral 10 mg/kg once daily, 24 h after day 2 dose (0 hrs day 3)): 32.7** %
- % GFR [mean] (oral 10 mg/kg once daily, 24 h after day 3 dose (0 hrs day 4)): 33.4** %
- % GFR [mean] (oral 10 mg/kg once daily, 24 h after day 4 dose (0 hrs day 5)): 32.0** %
- % GFR [mean] (oral 10 mg/kg, 1 h (day 1)): 35.9** %
- % GFR [mean] (oral 10 mg/kg, 3 h (day 1)): 55.6** %
- % GFR [mean] (oral 10 mg/kg, 3 h (day 1), listed as product prepared with Compound A155(a) and fumaric acid): 55.6%
- % GFR [mean] (oral 10 mg/kg, 5 h (day 1)): 45.9** %
- % GFR [mean] (oral 10 mg/kg, 7 h (day 1)): 22.8** %
- % GFR [mean] (oral 10 mg/kg, 24 h after day 1 dose (0 hrs day 2)): −5.7%
- % GFR [mean] (oral 20 mg/kg, 1 h (day 1)): 49.0** %
- % GFR [mean] (oral 20 mg/kg, 3 h (day 1)): 65.1** %
- % GFR [mean] (oral 20 mg/kg, 3 h (day 1), listed as product prepared with Compound A155(a) and fumaric acid): 65.1%
- % GFR [mean] (oral 20 mg/kg, 5 h (day 1)): 50.3** %
- % GFR [mean] (oral 20 mg/kg, 7 h (day 1)): 29.3** %
- % GFR [mean] (oral 20 mg/kg, 24 h after day 1 dose (0 hrs day 2)): −1.3%
